Measurements: patent publication US12589087B2, “Enantiomer selective action on neurotransmission” (The Board of Trustees of the Leland Stanford Junior …, priority 2021, dated 2026)

System: C57Bl/6 mice
Experiment: SHIRPA, activity chamber open field and hot plate after single injection
Assay type: in vivo, mouse
Method: Dosing: (R)-2MeGlu (30, 100, 300, or 900 mg/kg), (S)-2MeGlu (30, 100, 300, or 900 mg/kg), rac-2MeGln (30, 100, 300, or 900 mg/kg) and vehicle (PBS) were administered at 10 ml/kg IP dosing volume. Three mice were dosed once with the assigned drug (100, 300, or 900 mg/kg) or vehicle and immediately placed in a new cage for novel cage observation. Subsequently, six mice were dosed once with the assigned drug (30 or 100 mg/kg) or vehicle and tested by SHIRPA, activity chamber, and then hot plate tests.
Hot Plate apparatus (IITC Inc. Model 39) was set to 55° C.±0.2. On testing day, mice were placed on the surface of the hot plate and covered by a transparent glass cylinder (25 cm high and 12 cm diameter). A 30 second cutoff time was assigned. A remote foot-switch pad was used to control the start/stop/reset function. Latency time was recorded when hind paw licking or jumping off first occurred.
The SHIRPA preliminary screen designed by Rogers et al. (1997) was modified and used to assess the general health and behavioral traits of the mice for the initial five minutes after drug administration. The test was conducted in three different testing locations: A cylindrical clear plastic viewing jar (15 cm height×10 cm diameter), a polycarbonate cage (Arena) with 10 cm×10 cm squares on the floor, and a 1 cm×1 cm wire grid. The test began by placing the mouse in the clear plastic viewing jar for 60 seconds, and the behavioral parameters were monitored and recorded. The mouse was then transferred to an open-top arena by releasing them from 25 cm above the floor of the arena. Upon completion of monitoring the parameters inside the arena, the mouse was removed from the arena by the tail. Behavioral parameters monitored were according to Portmann et al. (2014).
Assessment was made in an Open Field Activity Arena (Med Associates Inc., St. Albans, VT. Model ENV-515) mounted with three planes of infrared detectors within a specially designed sound-attenuating chamber (Med Associates Inc., St. Albans, VT. MED-017M-027). The arena was 43 cm (L)×43 cm (W)×30 cm (H) and the sound-attenuating chamber was 74 cm (L)×60 cm (W)×60 cm (H). The mice were placed in the corner of the testing arena and allowed to explore the arena for 60 min while being tracked automatically. Parameters measured include distance moved, velocity, rearing, and times spent in the periphery and center of the Arena. Periphery was defined as the zone 5 cm away from the arena wall. The Arena was cleaned with a 1% Virkon solution at the end of the trial. […] The novel cage protocol is conducted on the benchtop in a lighted room using a clean home cage, and tests habituation using video recording and scoring of behavioral performance. Moreover, the novel cage allows the tester to visualize any other side effects such as seizure or repetitive jumping. The activity chamber is in an enclosed box, and the test is done in the dark, without bedding, and in a sound isolating chamber. The activity chamber measures distance moved using infrared beams and without video recordings.
Exploratory behavioral tests were performed exactly as previously described by us using 2-month-old C57Bl/6 male mice, Example 1. First, we assessed safety and tolerability of acute exposure to 4APA enantiomers in 22 mice by novel cage observation at 100, 300, or 900 mg/kg IP compared to vehicle (PBS) IP (n=3 or 4 mice per group without sample calculation, based on our previous study. Next, we evaluated 24 drug naïve mice with a 23-measure battery of neurologic dysfunction in mice (SHIRPA) (Rogers et al., 2001), automated activity chamber assessment, and hot plate latency acutely following 30 or 100 mg/kg IP compared to vehicle IP (n=4 or 5 mice per group). No exclusion criteria were predetermined and no randomization was performed to allocate subjects in the study.

[1] = single 30 mg/kg IP, only at 11 minutes post injection
[2] = single 100 mg/kg IP, up to 6 minutes post injection

Compound | distance moved in the activity chamber vs vehicle [1] | distance moved in the activity chamber vs vehicle [2]
C[C@@](N)(CCC(=O)O)C(=O)O [(R)-2MeGlu, (R)-2-methylglutamic acid] | modest but significant reduction | significantly reduced
CC(N)(CCC(N)=O)C(=O)O (racemic) [rac-2MeGln, rac-2-methylglutamine] | modest but significant reduction | not significantly different from vehicle at any time point
C[C@](N)(CCC(=O)O)C(=O)O [(S)-2MeGlu, (S)-2-methylglutamic acid] | not significantly different | significantly reduced
